From patent EP1026237B1, “Use of an inhibitor of Tau/neurofilament protein kinase PK40” (Massachusetts Institute Of Technology, priority 1991, dated 1993) come the findings set out here.

“And” between values parts separate entries of the source, which are not always exact repeats. Identical values can stand only once.

For experiment [1], the target named is KSP-phosphorylating kinases. Kind of experiment: Immuno-dotblot assay (SMI-31/SMI-34) of crude enzyme with dephosphorylated NF-triplet. Format: biochemical, bovine. The following applies: ATP [5mM]. How it is done:
The preferred method for the immunoassay for detecting KSP-phosphorylating kinases is as follows. Dephosphorylated NF-triplet protein was incubated with the 35-45% ammonium sulfate fraction of the brain supernatant (see section B.). Immuno-dotblot assays were performed in 50 mM HEPES, pH 7.0, 2 mM MgCl2, […], 2 mM DTT in a total volume of 30 µl with 5 µg of dephosphorylated native NF-triplet or 1.2 µg of dephosphorylated pure subunits NF-M or NF-H as substrates together with a control assay lacking NFs. After incubation at 37°C for 18 hours, assays were diluted to 100 µl with 10 mM PBS, pH 7.2, and aliquots of 50 µl were spotted on nitrocellulose (0.22µm, Schleicher and Schüll). Blots were blocked by 1 hour incubation with 3% BSA in 10mM PBS, pH 7.2, and washed once in 0.5% Triton-X100/10 mM PBS. Antibodies were diluted in sterile 10 mM PBS, pH 7.2, 0.5% Triton-X100, 10% fetal calf serum. Blots were incubated with SMI mAbs for at least 2 hours. The blots were then washed five times. Mouse mAbs were detected by reaction with horseradish-peroxidase-linked goat-anti-mouse antibody (Cappel Co.) in 1:200 dilution and by staining with 0.05% 4-chloro-1-naphthol (Sigma) and 0.05% H2O2 in 50 mM TBS, pH 7.5, 33% ethanol for 5-20 minutes. All incubations and washes were at room temperature. Incubations were sealed in plastic bags with 50 µl of solution/cm^2 membrane. […]

The next experiment relates to PK36. Put plainly: 32P kinase assay, ATP dependence and inhibition of PK36 activity with dephosphorylated NF-M as substrate. Format: biochemical, bovine. The following applies: % of control. How it is done: An alternative method for assaying the phosphorylating activity of the kinases was by ^32P assays. Radioactive assays in the same buffer system as for immunoassays contained 5 µg of HTP-purified native NF-triplet as substrate (3µg of substrate proteins other than NFs) and 150-250 cpm/pmole gamma-^32P-ATP. […] The glass filters were washed twice for 1 hour and once for at least 3 hours in 10% TCA/2% PPA and finally in ethanol and were air-dried. Radioactivity was assessed by scintillation counting (Beckman LS 230) with 5 ml "Liquiscint" (National Diagnostics) for 20 minutes. Assays were routinely carried out in triplicate except for some duplicate assays in a few explicitly mentioned cases; a control assay lacking NFs was subtracted from the mean value.

Another experiment has as its system PK40. Kind of experiment: 32P kinase assay, ATP dependence and inhibition of PK40 activity with dephosphorylated NF-M as substrate. The following applies: for relative activity [%] of PK40: % of control. Type of experiment: biochemical, bovine. How it is done: An alternative method for assaying the phosphorylating activity of the kinases was by ^32P assays. Radioactive assays in the same buffer system as for immunoassays contained 5 µg of HTP-purified native NF-triplet as substrate (3µg of substrate proteins other than NFs) and 150-250 cpm/pmole gamma-^32P-ATP. Incubation times were 15 minutes at 37°C for activities up to about 1 pmole/min/assay, since the assay responses were linear within these time intervals. Assays were stopped by cooling on ice, addition of 20 µl 25 mM EDTA and immediate transfer of the mixture onto glass filters (Whatman GF/A) wetted with 10% TCA/2% sodium pyrophosphate (PPA). The glass filters were washed twice for 1 hour and once for at least 3 hours in 10% TCA/2% PPA and finally in ethanol and were air-dried. Radioactivity was assessed by scintillation counting (Beckman LS 230) with 5 ml "Liquiscint" (National Diagnostics) for 20 minutes. Assays were routinely carried out in triplicate except for some duplicate assays in a few explicitly mentioned cases; a control assay lacking NFs was subtracted from the mean value.
The ATP dependence and inhibition of the activities of PK40 and PK36 were determined at 2 mM Mg^2+ with soluble dephosphorylated NF-M as second substrate to avoid uncertainties arising from the aggregation state of NF-triplet in suspension. The optima were at 0.5 - 1 mM ATP for both kinases. Apparent Km values for ATP of both kinases were estimated from Woolf-Hanes plots (Dixon and Webb, 1979) for a range of ATP concentrations sufficiently below the onset of inhibition. […] The apparent Km of PK36 was approximately 50 µM.

For experiment [2], the target named is kinase PK40 (bovine brain) (bovine). Put plainly: cell-based or functional assay.

Usually Km stands for the concentration of substrate that gives half-maximal velocity. On to ATP, for which, in experiment [1], the “kinase activity (reconstitution of SMI-31 and SMI-34 epitopes)” value is given as “inhibited”. In addition, the “relative activity [%] of PK36” value with PK36 (5mM Mg^2, 5mM ATP) is on record as 38±2.2%. Also, in the experiment on PK40 (5mM Mg^2, 5mM ATP), the “relative activity [%] of PK40” value is recorded as 78±7.1%. Moreover, in the experiment on PK40 (ATP in relatively small excess over Mg^2+), the “inhibition of PK40 by an excess of ATP” value is on record as “strongly inhibited”. In the experiment with PK40 (PK40, 2 mM Mg^2+, Woolf-Hanes plots, mean ± S.D. of three determinations at three NF-M concentrations, read-out: apparent Km value for ATP), the Michaelis-Menten constant (Km) stood at 93 ± 12 µM.

In experiment [2], Walsh inhibitor came in with a relative activity [%] at Walsh Inhibitor 1.5 [M, as printed] (% of the control) of 107; a relative activity [%] at Walsh Inhibitor 4.5 [M, as printed] (% of the control) of 102; a relative activity [%] at Walsh Inhibitor 45 [M, as printed] (% of the control) of 101.

On to `[Cl-].[Na+]` [NaCl, sodium chloride], for which the “relative activity [%] of PK36” value in the experiment with PK36 (NaCl 150mM, 15 min, 150000 µM) was 40% and 40±0.8%. For the same molecule, the “relative activity [%] of PK40” value in the experiment with PK40 (NaCl 150mM, 15 min, 150000 µM) was 27% and 27±1.8%.
